Assay results reported in ChEMBL document CHEMBL1130535, “Synthesis of triphosphonate analogues of farnesyl pyrophosphate. Inhibitors of squalene synthase and protein:farnesyl transferase” (Bioorg Med Chem Lett, 1997).

What was measured:
[1] = target: T1, Squalene synthase (Homo sapiens, UniProt P37268); assay: Inhibition of Squalene Synthase
T1 sequence (P37268 whole entry): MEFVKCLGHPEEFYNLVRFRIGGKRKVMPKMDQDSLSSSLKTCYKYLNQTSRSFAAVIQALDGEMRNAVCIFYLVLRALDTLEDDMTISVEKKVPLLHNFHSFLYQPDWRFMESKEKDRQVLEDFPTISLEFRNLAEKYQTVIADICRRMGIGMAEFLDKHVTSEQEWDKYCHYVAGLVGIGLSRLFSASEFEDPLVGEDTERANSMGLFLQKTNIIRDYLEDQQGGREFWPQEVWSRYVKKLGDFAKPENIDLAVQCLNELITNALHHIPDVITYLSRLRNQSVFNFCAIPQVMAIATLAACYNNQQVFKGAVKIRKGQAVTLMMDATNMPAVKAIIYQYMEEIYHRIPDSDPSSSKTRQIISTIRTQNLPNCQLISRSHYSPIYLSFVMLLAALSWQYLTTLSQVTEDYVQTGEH

[2] = target: Protein farnesyltransferase (Homo sapiens, UniProt P49354+P49356); assay: Inhibition of Farnesyl Transferase; format: protein-complex assay

Row | IC50 [1] [µM] | IC50 [2] [µM] | Structure (SMILES)
1 | 46.4 | 34.2 | CC(C)=CCC/C(C)=C/CC/C(C)=C/CC1P(=O)(O)CP(=O)(O)OP1(=O)O (stereo not given)
2 | > 50 | 56.2 | CC(C)=CCC/C(C)=C/CC/C(C)=C/CC1(C/C=C(\C)CC/C=C(\C)CCC=C(C)C)P(=O)(O)CP(=O)(O)OP1(=O)O (stereo not given)
3 | 0.018 | 13.5 | CC(C)=CCC/C(C)=C/CC/C(C)=C/CC(P(=O)(O)O)P(=O)(O)O
4 | 1.1 | 1.81 | CC(C)=CCC/C(C)=C/CC/C(C)=C/CC(P(=O)(O)O)P(=O)(O)CP(=O)(O)O (stereo not given)
5 | 23.3 | 3.99 | CC(C)=CCC/C(C)=C/CC/C(C)=C/CC(C/C=C(\C)CC/C=C(\C)CCC=C(C)C)(P(=O)(O)O)P(=O)(O)CP(=O)(O)O (stereo not given)
